Results: article PMC5789847, “Bismuth antimicrobial drugs serve as broad-spectrum metallo-β-lactamase inhibitors” (Nature Communications, 2018)

What was measured:
[1] = system: NDM-BL21; assay: Microdilution MIC assay; format: cell-based, E. coli
Text: (§1) Other procedures were kept strictly the same.

[2] = system: NDM-Rosetta; assay: Microdilution MIC assay; format: cell-based, E. coli
Text: as §1

[3] = target: T1, NDM-1 (Klebsiella pneumoniae, UniProt C7C422); format: biochemical; settings: MER substrate
T1 sequence (C7C422 29-270, looked up, species assumed): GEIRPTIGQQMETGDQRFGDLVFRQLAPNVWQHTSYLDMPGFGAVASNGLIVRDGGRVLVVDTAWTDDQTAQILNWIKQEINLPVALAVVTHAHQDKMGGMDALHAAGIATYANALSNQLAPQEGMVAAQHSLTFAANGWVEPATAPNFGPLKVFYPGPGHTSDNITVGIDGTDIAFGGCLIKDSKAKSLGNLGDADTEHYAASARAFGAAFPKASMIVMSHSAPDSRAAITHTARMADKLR

[4] = target: T1, NDM-1; assay: Zinc displacement analysis by ICP-MS; format: binding; settings: Zn-bound NDM-1 20 μM + increasing CBS
Description: To monitor the displacement of Zn(II) by Bi(III), ICP-MS was employed to accurately quantify ^209Bi and ^66Zn contents in various purified NDM-1 samples. Purified Zn-bound-NDM-1 (20 μM) dissolved in trace-metal-free ICP-MS buffer containing 50 mM HEPES, pH 7.0, was incubated with various concentrations of CBS at 25 °C for 5 h with mild shaking. The samples were subsequently dialyzed in ICP-MS buffer to remove unbound-metal ions and were then acidified and subsequently analyzed using an ICP-MS spectrometer (Agilent 7500a, Agilent Technologies, CA, USA) with ^115In as an internal standard for ^209Bi, ^66Zn, and ^34S contents, which are used to quantify protein concentration.

[5] = system: NDM-HK PCV; assay: Microdilution MIC and checkerboard assay; format: cell-based, E. coli
Description: The bacteria employed for cell-based and animal studies are listed in Supplementary Table 1. All the E. coli variants were made as described below. The NDM-HK PCV was screened by 20th-generation serial passages of NDM-HK in antibiotic-free medium.
MIC values were determined by standard broth micro-dilution method (Clinical and Laboratory Standards Institute (CLSI) M100-S20, 2010)[64]. Briefly, bacterial cells were cultured in LB broth overnight at 37 °C at 250 rpm and the OD was measured at 600 nm (OD600). The bacterial density was adjusted to about 1 × 10^6 CFU mL^−1 and checked by CFU counting on agar plates afterwards. Tested antibiotics or Bi(III) compounds were added triplicately into individual wells of flat-bottomed 96-well plates and performed 2-fold serial dilution, followed by addition of prepared bacterial inocula. The plate was then incubated at 37 °C for overnight. […] The MIC was determined as the lowest concentration of a drug that could inhibit the growth of microorganism by both visual reading and OD reading at 600 nm using a microtiter plate reader.
Other procedures were kept strictly the same. […] Synergism was defined when FICI ≤ 0.5, indifference was defined when FICI > 0.5 and < 4, and antagonism was defined when FICI≥4[65]. […] All of the determinations were performed at least in triplicate on different days.

[6] = design: method as in earlier work; settings: treatment of peptic ulcer disease; cited from earlier work
[7] = system: NDM-C. freundii (NDM-1^+); assay: Microdilution MIC/MBC and checkerboard assay; format: cell-based, Citrobacter freundii
[8] = system: C208A-Rosetta; assay: Microdilution MIC assay; format: cell-based, E. coli; settings: C208A-Rosetta
Description: For the test of C208A-Rosetta, the growth condition briefly goes as follow. Overnight culture of C208A-Rosetta was diluted into fresh LB medium (1000-fold) and regrew to OD ~0.6. The overexpression of NDM-1-C208A was induced by addition of 200 μM isopropyl β-D-1-thiogalactopyranoside (IPTG) for 18 h at 25 °C. The following susceptibility test was performed as described in the Microdilution MIC and MBC assay section in the methodology by using the resulting bacterial pellets with the supplementation of 200 μM IPTG.
as §1

[9] = system: NDM-HK; assay: Resistance study: MPC and mutation frequency; format: cell-based, E. coli
[10] = system: NDM-HK; assay: Murine peritonitis infection, mucin-free model; format: in vivo, BALB/c mice; settings: without mucin; MER 50 mg kg^−1 + CBS 50 mg kg^−1, up to 86 h
Text: All experiments were approved by, and performed in accordance with the guidelines approved by Committee on the Use of Live Animals in Teaching and Research (CULATR), the University of Hong Kong. A total of 6–8-week-old, female BALB/c mice (18–22 g) were purchased from Charles River Laboratories, Inc. and were used in all mouse studies. The animals were randomized to cages for each experiment.
In mucin-free survival experiment, the mice were infected with a dose of 5 × 10^7 CFU of NDM-HK in PBS. The mice received monotherapy of MER (50 mg kg^−1) or CBS (50 mg kg^−1), or combination therapy 0.5 h post infection (n = 5 for each group). Other experimental operations and conditions were kept the same as that in mucin-assisted model. Body weights and mice survival were monitored for endpoint till endpoint of the experiment.

Substance: colloidal bismuth subcitrate [CBS]
- decrease in MIC of MER in combination with CBS ([1]; NDM-1 positive E. coli BL21(DE3)): 8 fold
- MIC of MER in combination with CBS ([1]; NDM-1 positive E. coli BL21(DE3), CBS concentration not stated): 2 µg/mL
- MIC of MER in combination with CBS at 16 µg mL-1 ([1]; NDM-BL21): 8 µg/mL
- MIC of MER in combination with CBS at 32 µg mL-1 ([1]; NDM-BL21): 4 µg/mL
- MIC of MER in combination with CBS at 256 µg mL-1 ([1]; NDM-BL21): 2 µg/mL
- decrease in MIC of MER in combination with CBS ([2]; NDM-1 positive E. coli Rosetta(DE3)): 8 fold
- MIC of MER in combination with CBS ([2]; NDM-1 positive E. coli Rosetta(DE3), CBS concentration not stated): 4 µg/mL
- MIC of MER in combination with CBS at 16 µg mL-1 ([2]; NDM-Rosetta): 8 µg/mL
- MIC of MER in combination with CBS at 32 µg mL-1 ([2]; NDM-Rosetta): 4 µg/mL
- MIC of MER in combination with CBS at 256 µg mL-1 ([2]; NDM-Rosetta): 4 µg/mL
- IC50 ([3]; NDM-1 50 nM, 1 h preincubation): 2.81 ± 0.34 µM
- maximal inhibition of MBL activity ([3]; NDM-1, dose-dependent): approximately 90%
- Bi(III) bound to the enzyme [4]: 0.96 molar equivalents
- Zn(II) displaced from NDM-1 [4]: ca. 2.13 molar equivalents
- growth inhibition by CBS itself ([5]; NDM-1-negative NDM-HK PCV, even at 256 µg mL^-1): no or minor growth inhibition
- MIC of MER in combination with CBS at 16 µg mL-1 ([5]; NDM-HK PCV): 0.03 µg/mL
- MIC of MER in combination with CBS at 32 µg mL-1 ([5]; NDM-HK PCV): 0.03 µg/mL
- MIC of MER in combination with CBS at 256 µg mL-1 ([5]; NDM-HK PCV): 0.03 µg/mL
- FICI ([5]; NDM-HK PCV, MER + CBS): 2
- intoxication at recommended dosage [6]: No intoxication has been documented
- MBC of MER in combination with compound at 32 µg mL^-1 ([7]; NDM-C. freundii (NDM-CF)): 1 µg/mL
- MIC of MER in combination with compound at 32 µg mL^-1 ([7]; NDM-C. freundii (NDM-CF)): 0.5 µg/mL
- MBC of Bi(III) compound alone ([7]; NDM-CF): > 256 µg/mL
- MIC of Bi(III) compound alone ([7]; NDM-CF): > 256 µg/mL
- FICI ([7]; NDM-CF, MER + compound, 256 µg mL^-1 set as MIC of Bi(III)): 0.125
- MIC of MER in combination with CBS at 16 µg mL-1 [8]: 0.12 µg/mL
- MIC of MER in combination with CBS at 32 µg mL-1 [8]: 0.12 µg/mL
- observed mutation frequency ([9]; MER with increasing CBS concentration): 1.31 × 10^−7 to 9.84 × 10^−10
- MER MPC with CBS ([9]; ≥128 µg mL^−1 CBS): 2 fold MIC
- mice survived, MER and CBS co-administrated [10]: 40%
